Measurements: US20150105252A1, “SUBSTITUTED PYRAZOLES AS HERBICIDES” (E I DU PONT DE NEMOURS AND COMPANY, priority 2013, published 2015)

Assays:
corn [1] = assay: Test A postemergence; assay type: in vivo, Zea mays; conditions: Postemergence, 1000 g ai/ha; visual rating after approx. 10 days, 0 to 100 scale (0 no effect, 100 complete control)
Text: (§1) Seeds of plant species selected from barnyardgrass (Echinochloa crus-galli), kochia (Kochia scoparia), common ragweed (Ambrosia elation), Italian ryegrass (Lolium multiflorum), crabgrass, large (large crabgrass, Digitaria sanguinalis), foxtail, giant (giant foxtail, Setaria faberii), morningglory (Ipomoea spp.), pigweed (redroot pigweed, Amaranthus retroflexus), velvetleaf (Abutilon theophrasti), wheat (Triticum aestivum), and corn (Zea mays) were planted into a blend of loam soil and sand and treated preemergence with a directed soil spray using test chemicals formulated in a non-phytotoxic solvent mixture which included a surfactant.
(§2) At the same time, plants selected from these crop and weed species and also blackgrass (Alopecurus myosuroides), and galium (catchweed bedstraw, Galium aparine) were planted in pots containing the same blend of loam soil and sand and treated with postemergence applications of test chemicals formulated in the same manner. Plants ranged in height from 2 to 10 cm and were in the one- to two-leaf stage for the postemergence treatment. Treated plants and untreated controls were maintained in a greenhouse for approximately 10 days, after which time all treated plants were compared to untreated controls and visually evaluated for injury. Plant response ratings, summarized in Table A, are based on a 0 to 100 scale where 0 is no effect and 100 is complete control. A dash (-) response means no test result.

corn [2] = assay: Test A preemergence; assay type: in vivo, Zea mays; conditions: Preemergence, 1000 g ai/ha; 0 to 100 scale, 0 no effect, 100 complete control
Text: as §1, §2

barnyardgrass [3] = assay: Test A postemergence; assay type: in vivo, Echinochloa crus-galli; conditions: Postemergence, 1000 g ai/ha; visual rating after approx. 10 days, 0 to 100 scale (0 no effect, 100 complete control)
Text: as §1, §2

foxtail, giant [4] = assay: Test A preemergence; assay type: in vivo, Setaria faberii; conditions: Preemergence, 1000 g ai/ha; 0 to 100 scale, 0 no effect, 100 complete control
Text: as §1, §2

crabgrass, large [5] = assay: Test A postemergence; assay type: in vivo, Digitaria sanguinalis; conditions: Postemergence, 1000 g ai/ha; visual rating after approx. 10 days, 0 to 100 scale (0 no effect, 100 complete control)
Text: as §1, §2

pigweed [6] = assay: Test A preemergence; assay type: in vivo, Amaranthus retroflexus; conditions: Preemergence, 1000 g ai/ha; 0 to 100 scale, 0 no effect, 100 complete control
Text: as §1, §2

crabgrass, large [7] = assay: Test A preemergence; assay type: in vivo, Digitaria sanguinalis; conditions: Preemergence, 0 to 100 scale, 0 no effect, 100 complete control
Text: as §1, §2

foxtail, giant [8] = assay: Test A postemergence; assay type: in vivo, Setaria faberii; conditions: Postemergence, 1000 g ai/ha; visual rating after approx. 10 days, 0 to 100 scale (0 no effect, 100 complete control)
Text: as §1, §2

morningglory [9] = assay: Test A postemergence; assay type: in vivo, Ipomoea spp.; conditions: Postemergence
Text: as §1, §2

wheat [10] = assay: Test A preemergence; assay type: in vivo, Triticum aestivum
Text: as §1, §2

velvetleaf [11] = assay: Test A preemergence; assay type: in vivo, Abutilon theophrasti; conditions: Preemergence, 0 to 100 scale, 0 no effect, 100 complete control
Text: as §1, §2

pigweed [12] = assay: Test A postemergence; assay type: in vivo, Amaranthus retroflexus; conditions: Postemergence
Text: as §1, §2

morningglory [13] = assay: Test A preemergence; assay type: in vivo, Ipomoea spp.; conditions: Preemergence, 0 to 100 scale, 0 no effect, 100 complete control
Text: as §1, §2

velvetleaf [14] = assay: Test A postemergence; assay type: in vivo, Abutilon theophrasti; conditions: Postemergence
Text: as §1, §2

barnyardgrass [15] = assay: Test A preemergence; assay type: in vivo, Echinochloa crus-galli; conditions: Preemergence, 0 to 100 scale, 0 no effect, 100 complete control
Text: as §1, §2

wheat [16] = assay: Test A postemergence; assay type: in vivo, Triticum aestivum; conditions: Postemergence
Text: as §1, §2

[17] = 1000 g ai/ha, visual rating after approx. 10 days, 0 to 100 scale (0 no effect, 100 complete control)
[18] = Preemergence, 1000 g ai/ha, 0 to 100 scale, 0 no effect, 100 complete control
[19] = 125 g ai/ha, 0 to 100 scale, 0 no effect, 100 complete control

Row | SMILES | Corn plant response rating (corn [1]) | Corn plant response rating (corn [2]) | Barnyardgrass plant response rating (barnyardgrass [3]) | Foxtail, Giant plant response rating (foxtail, giant [4]) | Crabgrass, Large plant response rating (crabgrass, large [5]) | Pigweed plant response rating (pigweed [6]) | Crabgrass, Large plant response rating (crabgrass, large [7]; 1000 g ai/ha) | Foxtail, Giant plant response rating (foxtail, giant [8]) | Morningglory plant response rating (morningglory [9]; [17]) | Wheat plant response rating (wheat [10]; [18]) | Velvetleaf plant response rating (velvetleaf [11]; 1000 g ai/ha) | Pigweed plant response rating (pigweed [12]; [17]) | Morningglory plant response rating (morningglory [13]; 1000 g ai/ha) | Velvetleaf plant response rating (velvetleaf [14]; [17]) | Barnyardgrass plant response rating (barnyardgrass [15]; 1000 g ai/ha) | Wheat plant response rating (wheat [16]; [17]) | also measured
1 | O=C(NCC(F)(F)F)c1cc(C2CC2)n(Cc2cccc(OC(F)(F)F)c2)n1 [Compound 36] | 20 | 0 | 20 | 20 | 30 | 30 | 20 | 30 | 90 | 0 | 0 | 90 | 0 | 60 | 0 | 0 | –
2 | CCCNC(=O)c1cc(SC)n(Cc2cccc(C(F)(F)F)c2)n1 [Compound 25] | 40 | 0 | 10 | 10 | 30 | 0 | 20 | 20 | 100 | 0 | 0 | 10 | 0 | 50 | 0 | 0 | –
3 | C=CCNC(=O)c1cc(CC)n(Cc2cccc(OC(F)(F)F)c2)n1 [Compound 58] | 20 | 0 | 20 | 20 | 30 | 70 | 70 | 20 | 50 | 0 | 0 | 60 | 20 | 50 | 10 | 0 | Wheat plant response rating (wheat [10]; preemergence, 500 g ai/ha, visual injury after approx. 10 days, 0 to 100 scale (0 no effect, 100 complete control)): 0
4 | CCc1cc(C(=O)NC(C)C)nn1Cc1cccc(C(F)(F)F)c1 [Compound 47] | 40 | 40 | 60 | 100 | 70 | 80 | 100 | 80 | 100 | 50 | 60 | 70 | 90 | 60 | 80 | 40 | –
5 | O=C(NC1CC1)c1cc(CCCl)n(Cc2ccnc(C(F)(F)F)c2)n1 [Compound 194] | – | – | – | – | – | – | – | – | – | – | – | – | – | – | – | – | Morningglory plant response rating (morningglory [9]; [19]): 50; Pigweed plant response rating (pigweed [12]; [19]): 50; Velvetleaf plant response rating (velvetleaf [14]; [19]): 60; Wheat plant response rating (wheat [16]; [19]): 0
6 | Cc1cc(C(=O)NC2CC2)nn1Cc1cccc(C(F)(F)F)c1 [Compound 2] | – | – | 50 | – | 50 | – | – | – | 80 | – | – | – | – | 70 | – | – | Crabgrass, Large plant response rating (crabgrass, large [7]; 2000 g ai/ha): 100; Velvetleaf plant response rating (velvetleaf [11]; 2000 g ai/ha): 100; Morningglory plant response rating (morningglory [13]; 2000 g ai/ha): 100; Barnyardgrass plant response rating (barnyardgrass [15]; 2000 g ai/ha): 90
7 | Cc1cc(C(=O)NC(C)(C)C)nn1Cc1cccc(C(F)(F)F)c1 [Compound 1] | – | – | 30 | – | 30 | – | – | – | 20 | – | – | – | – | 30 | – | – | Crabgrass, Large plant response rating (crabgrass, large [7]; 2000 g ai/ha): 10; Velvetleaf plant response rating (velvetleaf [11]; 2000 g ai/ha): 0; Morningglory plant response rating (morningglory [13]; 2000 g ai/ha): 0; Barnyardgrass plant response rating (barnyardgrass [15]; 2000 g ai/ha): 10
